In PubChem BioAssay (NCI):
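Growth conditions: 96-well plates. Treatment: test compound, 48 hours, 5 concentrations. Analysis: linear interpolation between bracketing concentrations; unreached endpoints set to highest concentration. GI50 is the concentration that inhibits growth by half. TGI denotes the concentration required for complete inhibition of growth.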

Assays:
Assay in all cases: NCI-60 cell line screen, 48 h
786-0 renal = test system: 786-0 renal
A498 renal = test system: A498 renal
A549 NSCLC = test system: A549 NSCLC
ACHN renal = test system: ACHN renal
BT-549 breast = test system: BT-549 breast
CAKI-1 renal = test system: CAKI-1 renal
CCRF-CEM leukemia = test system: CCRF-CEM leukemia
COLO 205 colon = test system: COLO 205 colon
DU-145 prostate = test system: DU-145 prostate
EKVX NSCLC = test system: EKVX NSCLC
HCC-2998 colon = test system: HCC-2998 colon
HCT-116 colon = test system: HCT-116 colon
HCT-15 colon = test system: HCT-15 colon
HL-60(TB) leukemia = test system: HL-60(TB) leukemia
HOP-62 NSCLC = test system: HOP-62 NSCLC
HOP-92 NSCLC = test system: HOP-92 NSCLC
HS 578T breast = test system: HS 578T breast
HT29 colon = test system: HT29 colon
IGROV1 ovarian = test system: IGROV1 ovarian
K-562 leukemia = test system: K-562 leukemia
KM12 colon = test system: KM12 colon
LOX IMVI melanoma = test system: LOX IMVI melanoma
M14 melanoma = test system: M14 melanoma
MALME-3M melanoma = test system: MALME-3M melanoma
MCF7 breast = test system: MCF7 breast
MDA-MB-231 breast = test system: MDA-MB-231 breast
MDA-MB-435 = test system: MDA-MB-435
MOLT-4 leukemia = test system: MOLT-4 leukemia
NCI-H226 lung = test system: NCI-H226 lung
NCI-H23 lung = test system: NCI-H23 lung
NCI-H460 lung = test system: NCI-H460 lung
NCI-H522 lung = test system: NCI-H522 lung
NCI/ADR-RES ovarian = test system: NCI/ADR-RES ovarian
OVCAR-3 ovarian = test system: OVCAR-3 ovarian
OVCAR-4 ovarian = test system: OVCAR-4 ovarian
OVCAR-5 ovarian = test system: OVCAR-5 ovarian
OVCAR-8 ovarian = test system: OVCAR-8 ovarian
PC-3 prostate = test system: PC-3 prostate
RPMI-8226 leukemia = test system: RPMI-8226 leukemia
RXF 393 renal = test system: RXF 393 renal
SF-268 CNS = test system: SF-268 CNS
SF-295 CNS = test system: SF-295 CNS
SF-539 CNS = test system: SF-539 CNS
SK-MEL-2 melanoma = test system: SK-MEL-2 melanoma
SK-MEL-28 melanoma = test system: SK-MEL-28 melanoma
SK-MEL-5 melanoma = test system: SK-MEL-5 melanoma
SK-OV-3 ovarian = test system: SK-OV-3 ovarian
SN12C renal = test system: SN12C renal
SNB-19 CNS = test system: SNB-19 CNS
SNB-75 CNS = test system: SNB-75 CNS
SR leukemia = test system: SR leukemia
SW-620 colon = test system: SW-620 colon
T-47D breast = test system: T-47D breast
TK-10 renal = test system: TK-10 renal
U251 CNS = test system: U251 CNS
UACC-257 melanoma = test system: UACC-257 melanoma
UACC-62 melanoma = test system: UACC-62 melanoma
UO-31 renal = test system: UO-31 renal

## CC1=C(CN(O)C(N)=O)C2=C(C)C3(CC3)[C@](C)(O)C(=O)C2=C1
786-0 renal
  GI50: 2360 nM
  TGI: 15500 nM
A498 renal
  GI50: 1350 nM
  TGI: 3250 nM
A549 NSCLC
  GI50: 3030 nM
  TGI: > 100000 nM
ACHN renal
  GI50: 1130 nM
  TGI: 8690 nM
BT-549 breast
  GI50: 1180 nM
  TGI: 3180 nM
CAKI-1 renal
  GI50: 1910 nM
  TGI: > 100000 nM
CCRF-CEM leukemia
  GI50: 2220 nM
  TGI: > 100000 nM
COLO 205 colon
  GI50: 753 nM
  TGI: 4580 nM
DU-145 prostate
  GI50: 452 nM
  TGI: 26000 nM
EKVX NSCLC
  GI50: 2340 nM
  TGI: 6850 nM
HCC-2998 colon
  GI50: 219 nM
  TGI: 540 nM
HCT-116 colon
  GI50: 1390 nM
HCT-15 colon
  GI50: 1290 nM
  TGI: 24800 nM
HL-60(TB) leukemia
  GI50: 952 nM
  TGI: > 100000 nM
HOP-62 NSCLC
  GI50: 1850 nM
  TGI: 58700 nM
HOP-92 NSCLC
  GI50: 1080 nM
  TGI: 4210 nM
HS 578T breast
  GI50: 2630 nM
  TGI: 9160 nM
HT29 colon
  GI50: 412 nM
  TGI: 13900 nM
IGROV1 ovarian
  GI50: 2240 nM
  TGI: 6380 nM
K-562 leukemia
  GI50: 1390 nM
  TGI: > 100000 nM
KM12 colon
  GI50: 798 nM
  TGI: 11500 nM
LOX IMVI melanoma
  GI50: 6380 nM
  TGI: 36600 nM
M14 melanoma
  GI50: 819 nM
  TGI: 2960 nM
MALME-3M melanoma
  GI50: 1830 nM
  TGI: 3880 nM
MCF7 breast
  GI50: 366 nM
  TGI: > 100000 nM
MDA-MB-231 breast
  GI50: 1110 nM
  TGI: 5880 nM
MDA-MB-435
  GI50: 382 nM
  TGI: 1430 nM
MOLT-4 leukemia
  GI50: 9020 nM
  TGI: > 100000 nM
NCI-H226 lung
  GI50: 2030 nM
  TGI: 6360 nM
NCI-H23 lung
  GI50: 2280 nM
  TGI: 9830 nM
NCI-H460 lung
  GI50: 2550 nM
  TGI: > 100000 nM
NCI-H522 lung
  GI50: 721 nM
  TGI: 4600 nM
NCI/ADR-RES ovarian
  GI50: 2000 nM
  TGI: 31200 nM
OVCAR-3 ovarian
  GI50: 557 nM
  TGI: 4150 nM
OVCAR-4 ovarian
  GI50: 1790 nM
  TGI: 9190 nM
OVCAR-5 ovarian
  GI50: 374 nM
  TGI: 5070 nM
OVCAR-8 ovarian
  GI50: 634 nM
  TGI: > 100000 nM
PC-3 prostate
  GI50: 1460 nM
  TGI: 11500 nM
RPMI-8226 leukemia
  GI50: 348 nM
  TGI: 2670 nM
RXF 393 renal
  GI50: 328 nM
  TGI: 1190 nM
SF-268 CNS
  GI50: 1720 nM
  TGI: > 100000 nM
SF-295 CNS
  GI50: 789 nM
  TGI: > 100000 nM
SF-539 CNS
  GI50: 2080 nM
  TGI: 6380 nM
SK-MEL-2 melanoma
  GI50: 2110 nM
  TGI: 4850 nM
SK-MEL-28 melanoma
  GI50: 732 nM
  TGI: 3000 nM
SK-MEL-5 melanoma
  GI50: 5610 nM
  TGI: 18500 nM
SK-OV-3 ovarian
  GI50: 2620 nM
  TGI: 9960 nM
SN12C renal
  GI50: 2620 nM
  TGI: > 100000 nM
SNB-19 CNS
  GI50: 2580 nM
  TGI: > 100000 nM
SNB-75 CNS
  GI50: 1280 nM
  TGI: 3390 nM
SR leukemia
  GI50: 896 nM
  TGI: > 100000 nM
SW-620 colon
  GI50: 1080 nM
  TGI: > 100000 nM
T-47D breast
  GI50: 992 nM
  TGI: > 100000 nM
TK-10 renal
  GI50: 2010 nM
  TGI: 8020 nM
U251 CNS
  GI50: 3470 nM
  TGI: > 100000 nM
UACC-257 melanoma
  GI50: 3020 nM
  TGI: 31300 nM
UACC-62 melanoma
  GI50: 1290 nM
  TGI: 3060 nM
UO-31 renal
  GI50: 254 nM
  TGI: 830 nM
